Test results from ChEMBL document CHEMBL1130039, “1,2-Diarylimidazoles as potent, cyclooxygenase-2 selective, and orally active antiinflammatory agents” (J Med Chem, 1997).
pIC50: −log10 of the molar value. Activity calls are given as the source filed them. The rule behind the calls is not given here.

What was measured:
[1] = species on record: Rattus norvegicus; assay: animal or person; format: functional
[2] = species on record: Rattus norvegicus; assay: animal or person; format: functional; remark: listed apart in the source
[3] = species on record: Rattus norvegicus; assay: animal or person; format: functional; remark: listed apart in the source
[4] = rat, in vivo, po, 200 mg/kg
[5] = target: T1, Prostaglandin G/H synthase 1 (Homo sapiens, UniProt P23219)
[6] = species on record: Rattus norvegicus; assay: animal or person; format: functional; remark: listed apart in the source
[7] = species on record: Rattus norvegicus; assay: animal or person; format: functional; remark: listed apart in the source
[8] = species on record: Rattus norvegicus; assay: animal or person; format: functional; remark: listed apart in the source
[9] = target: T2, Prostaglandin G/H synthase 2 (Homo sapiens) (UniProt P35354)
T2 sequence (whole entry): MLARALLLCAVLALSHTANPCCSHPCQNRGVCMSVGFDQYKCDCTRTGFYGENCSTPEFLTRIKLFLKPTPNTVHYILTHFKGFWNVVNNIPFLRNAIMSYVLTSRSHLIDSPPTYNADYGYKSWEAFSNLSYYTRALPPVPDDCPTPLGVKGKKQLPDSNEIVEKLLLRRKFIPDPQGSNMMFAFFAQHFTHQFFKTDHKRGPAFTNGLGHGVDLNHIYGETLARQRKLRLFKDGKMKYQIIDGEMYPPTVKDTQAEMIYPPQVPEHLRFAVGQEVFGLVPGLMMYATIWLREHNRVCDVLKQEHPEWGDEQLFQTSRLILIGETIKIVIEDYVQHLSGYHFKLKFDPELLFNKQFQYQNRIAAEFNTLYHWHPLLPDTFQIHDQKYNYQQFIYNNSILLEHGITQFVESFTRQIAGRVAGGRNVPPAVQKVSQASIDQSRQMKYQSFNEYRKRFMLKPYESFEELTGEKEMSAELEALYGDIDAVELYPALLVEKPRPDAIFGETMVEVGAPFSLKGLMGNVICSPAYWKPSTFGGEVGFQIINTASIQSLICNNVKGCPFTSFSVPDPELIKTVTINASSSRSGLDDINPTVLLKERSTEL

[10] = target: T1, Prostaglandin G/H synthase 1; remark: listed apart in the source
[11] = species on record: Rattus norvegicus; assay: animal or person; format: functional; remark: listed apart in the source
[12] = species on record: Rattus norvegicus; assay: animal or person; format: functional; remark: listed apart in the source
[13] = physchem; details: octanol/water
[14] = species on record: Rattus norvegicus; assay: animal or person; details: read-out: Inhibition
[15] = mouse, in vivo, po, 200 mg/kg
[16] = mouse, in vivo, po, 20 mg/kg

T1 sequence (P23219 whole entry): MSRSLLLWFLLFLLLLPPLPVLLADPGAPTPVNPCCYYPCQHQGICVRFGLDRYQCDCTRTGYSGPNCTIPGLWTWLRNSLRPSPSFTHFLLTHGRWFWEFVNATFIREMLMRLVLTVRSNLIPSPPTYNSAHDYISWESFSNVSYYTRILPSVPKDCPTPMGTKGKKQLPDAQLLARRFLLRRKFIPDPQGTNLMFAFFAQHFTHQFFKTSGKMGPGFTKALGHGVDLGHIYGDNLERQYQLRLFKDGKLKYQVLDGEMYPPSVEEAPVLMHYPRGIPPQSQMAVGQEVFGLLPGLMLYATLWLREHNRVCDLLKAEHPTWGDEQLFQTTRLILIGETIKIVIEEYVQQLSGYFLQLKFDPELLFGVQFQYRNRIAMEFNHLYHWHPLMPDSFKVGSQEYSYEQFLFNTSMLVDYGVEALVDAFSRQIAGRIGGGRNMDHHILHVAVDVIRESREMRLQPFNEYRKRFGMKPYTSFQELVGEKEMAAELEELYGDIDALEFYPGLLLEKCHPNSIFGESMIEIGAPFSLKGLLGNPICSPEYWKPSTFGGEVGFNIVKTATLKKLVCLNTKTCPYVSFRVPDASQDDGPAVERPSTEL

SMILES | inhibition in vivo at 2 mg/kg [3] | pIC50 [5] | also measured
Cc1ccccc1-c1nc(C(F)(F)F)cn1-c1ccc(S(C)(=O)=O)cc1 | 95% |  | ED50 [1]: 17.8 mg/kg; ED50 [2]: 43 mg/kg; Toxicity [4]: 0
Cc1ccc(F)cc1-c1nc(C(F)(F)F)cn1-c1ccc(S(C)(=O)=O)cc1 |  | < 4.00 | 
COc1c(Br)cc(-c2nc(C(F)(F)F)cn2-c2ccc(S(C)(=O)=O)cc2)cc1Br | 0% | < 4.00 | 
COc1ccc(-c2nc(C(F)(F)F)cn2-c2ccc(S(C)(=O)=O)cc2)cc1Cl | 92% |  | ED50 [6]: 29 mg/kg; ED50 [7]: 35 mg/kg
CS(=O)(=O)c1ccc(-n2cc(C(F)(F)F)nc2-c2cccc(C(F)(F)F)c2)cc1 | 42% |  | 
Cc1cc(F)cc(-c2nc(C(F)(F)F)cn2-c2ccc(S(N)(=O)=O)cc2)c1 | 80% |  | 
CS(=O)(=O)c1ccc(-n2cc(C(F)(F)F)nc2-c2ccc(F)c(F)c2)cc1 | 87% |  | 
CN(C)c1cc(-c2nc(C(F)(F)F)cn2-c2ccc(S(C)(=O)=O)cc2)ccc1Cl | 69% | < 4.00 | 
Cc1cc(-c2nc(C(F)(F)F)cn2-c2ccc(S(C)(=O)=O)cc2)ccc1Cl | 64% |  | 
CS(=O)(=O)c1ccc(-n2cc(C(F)(F)F)nc2-c2cc(F)cc(C(F)(F)F)c2)cc1 |  | 4.17 | 
Cc1ccc(-c2nc(C(F)(F)F)cn2-c2ccc(S(C)(=O)=O)cc2)cc1Cl | 10% |  | ED50 [8]: 20.9 mg/kg; ED50 [2]: 55 mg/kg
CS(=O)(=O)c1ccc(-c2[nH]cnc2-c2ccc(F)cc2)cc1 |  |  | NA [9]: inactive; NA [10]: inactive
CS(=O)(=O)c1ccc(-n2cc(CN)nc2-c2ccc(Cl)cc2)cc1 |  | < 4.00 | 
NS(=O)(=O)c1ccc(-n2cc(C(F)(F)F)nc2-c2cccc(Br)c2)cc1 |  | 5.35 | 
COc1c(F)cc(-c2nc(C(F)(F)F)cn2-c2ccc(S(C)(=O)=O)cc2)cc1F | 89% |  | ED50 [11]: 26 mg/kg
COCc1cccc(-c2nc(C(F)(F)F)cn2-c2ccc(S(C)(=O)=O)cc2)c1 |  | < 4.00 | 
CS(=O)(=O)c1ccc(-n2cc(C(F)(F)F)nc2-c2ccccc2F)cc1 | 97% |  | 
CS(=O)(=O)c1ccc(-n2cc(COc3ccc(Cl)cc3)nc2-c2ccc(Cl)cc2)cc1 | 15% | < 4.00 | 
COc1c(C)cc(-c2nc(C(F)(F)F)cn2-c2ccc(S(C)(=O)=O)cc2)cc1C | 29% | 4.04 | 

SMILES | inhibition in vivo at 2 mg/kg [3] | pIC50 [5] | also measured
CS(=O)(=O)Cc1cn(-c2ccc(S(C)(=O)=O)cc2)c(-c2ccc(Cl)cc2)n1 |  | < 4.00 | 
Cc1ccc(-c2nc(C(F)(F)F)cn2-c2ccc(S(C)(=O)=O)cc2)cc1F | 47% |  | 
CSc1ccc(-c2nc(C(F)(F)F)cn2-c2ccc(S(C)(=O)=O)cc2)cc1 | 79% |  | 
NS(=O)(=O)c1ccc(-n2cc(C(F)(F)F)nc2-c2ccc(F)cc2)cc1 | 98% | 5.72 | 
CS(=O)(=O)c1ccc(-n2ccnc2-c2ccccc2)cc1 |  | < 4.00 | 
Cc1cc(F)cc(-c2nc(C(F)(F)F)cn2-c2ccc(S(C)(=O)=O)cc2)c1 | 87% |  | 
COc1cccc(-c2nc(C(F)(F)F)cn2-c2ccc(S(C)(=O)=O)cc2)c1 | 45% |  | 
CS(=O)(=O)c1ccc(-n2cc(C(F)(F)F)nc2-c2ccc3c(c2)OCO3)cc1 | 78% |  | 
CS(=O)(=O)c1ccc(-n2cc(C(F)(F)F)nc2-c2cccc(Br)c2)cc1 | 84% |  | 
CS(=O)(=O)c1ccc(-n2cc(C(F)(F)F)nc2-c2cc(Cl)cc(Cl)c2)cc1 | 5% |  | 
COc1cc(-c2nc(C(F)(F)F)cn2-c2ccc(S(C)(=O)=O)cc2)ccc1Cl | 0% |  | 
CS(=O)(=O)c1ccc(-n2cc(-c3ccccc3)nc2-c2ccc(Cl)cc2)cc1 | 6% | < 4.00 | 
COc1ccc(-c2nc(C(F)(F)F)cn2-c2ccc(S(N)(=O)=O)cc2)cc1F | 89% |  | ED50 [12]: 19 mg/kg; ED50 [2]: 36 mg/kg
CSCc1cn(-c2ccc(S(C)(=O)=O)cc2)c(-c2ccc(Cl)cc2)n1 | 10% | < 4.00 | 
CS(=O)(=O)c1ccc(-n2cc(CSc3ccc(Cl)cc3)nc2-c2ccc(Cl)cc2)cc1 | 0% | < 4.00 | 
COc1ccc2c(c1)c(CC(=O)O)c(C)n2C(=O)c1ccc(Cl)cc1 [INDOMETHACIN] |  |  | ED50 [12]: 60 mg/kg
CS(=O)(=O)c1ccc(-n2cc(C(F)(F)F)nc2-c2ccc(Cl)cc2)cc1 | 98% |  | ED50 [1]: 9 mg/kg; logP [13]: 3.3
COc1cc(-c2nc(C(F)(F)F)cn2-c2ccc(S(N)(=O)=O)cc2)ccc1Cl | 100% |  | 
COc1c(F)cc(-c2nc(C(F)(F)F)cn2-c2ccc(S(N)(=O)=O)cc2)cc1F | 100% |  | 

SMILES | inhibition in vivo at 2 mg/kg [3] | pIC50 [5] | also measured
Cc1cn(-c2ccc(S(C)(=O)=O)cc2)c(-c2ccc(Cl)cc2)n1 |  | < 4.00 | inhibition in vivo at 2 mg/kg [14]: 53%
CN(C)c1ccc(-c2nc(C(F)(F)F)cn2-c2ccc(S(C)(=O)=O)cc2)cc1Cl | 87% |  | 
Cc1ccc(-c2nc(C(F)(F)F)cn2-c2ccc(S(C)(=O)=O)cc2)cc1C | 15% |  | 
Cc1cccc(-c2nc(C(F)(F)F)cn2-c2ccc(S(C)(=O)=O)cc2)c1 | 77% |  | Toxicity [15]: 0; ED50 [1]: 23 mg/kg; ED50 [2]: 46 mg/kg; Toxicity [16]: 0
CS(=O)(=O)c1ccc(-n2cc(C(F)(F)F)nc2-c2cccc(F)c2)cc1 | 88% |  | 
Cc1cn(-c2ccc(F)cc2)c(-c2ccc(S(C)(=O)=O)cc2)n1 |  | < 4.00 | 
COc1c(Cl)cc(-c2nc(C(F)(F)F)cn2-c2ccc(S(C)(=O)=O)cc2)cc1Cl | 25% | < 4.00 | 
CN(C)c1c(Cl)cc(-c2nc(C(F)(F)F)cn2-c2ccc(S(C)(=O)=O)cc2)cc1Cl | 25% | < 4.00 | 
NS(=O)(=O)c1ccc(-n2cc(C(F)(F)F)nc2-c2ccc(F)c(F)c2)cc1 | 83% |  | 
CS(=O)(=O)c1ccc(-n2cc(C(F)(F)F)nc2-c2ccccc2)cc1 | 98% |  | ED50 [1]: 20.8 mg/kg; ED50 [2]: 56 mg/kg
CS(=O)(=O)c1ccc(-n2cc(CF)nc2-c2ccc(Cl)cc2)cc1 | 36% | < 4.00 | 
Cc1ccc(-c2nc(C(F)(F)F)cn2-c2ccc(S(N)(=O)=O)cc2)cc1 | 63% |  | 
CSc1ccc(-c2nc(C(F)(F)F)cn2-c2ccc(S(C)(=O)=O)cc2)cc1Cl | 0% |  | 
CS(=O)(=O)c1ccc(-n2cc(C#N)nc2-c2ccc(Cl)cc2)cc1 | 69% |  | 
Cc1cccc(Cl)c1-c1nc(C(F)(F)F)cn1-c1ccc(S(C)(=O)=O)cc1 |  | < 4.00 | 
Cc1cccc(-c2nc(C(F)(F)F)cn2-c2ccc(S(N)(=O)=O)cc2)c1 | 95% |  | 
Cc1cc(Cl)cc(-c2nc(C(F)(F)F)cn2-c2ccc(S(N)(=O)=O)cc2)c1 | 61% | < 4.00 | 
Cc1cc(-c2nc(C(F)(F)F)cn2-c2ccc(S(C)(=O)=O)cc2)ccc1F | 90% |  | 
